From patent US9468661B2, “Pyrrolidine derivatives and their use as complement pathway modulators” (priority 2012, dated 2016)

biological target: human factor D (Homo sapiens (Human), UniProt P00746); experiment: biochemical; type: biochemical; details: Factor D inhibition data using Method 1; recombinant human factor D 10 nM, substrate Z-Lys-thiobenzyl, fluorescence; read-out: IC50
Summary of the method: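 E. coli-expressed recombinant human factor D (10 nM) was preincubated with compound for 1 h at room temperature in 0.1 M Hepes pH 7.5, 1 mM MgCl2, 1 M NaCl, 0.05% CHAPS. Fluorescence (ex 485/em 535 nm) was read after adding Z-Lys-thiobenzyl (200 μM) and 2,4-dinitrobenzenesulfonyl-fluoresceine (25 μM); IC50 came from percent inhibition versus concentration.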

Chain of human factor D (P00746 26-253): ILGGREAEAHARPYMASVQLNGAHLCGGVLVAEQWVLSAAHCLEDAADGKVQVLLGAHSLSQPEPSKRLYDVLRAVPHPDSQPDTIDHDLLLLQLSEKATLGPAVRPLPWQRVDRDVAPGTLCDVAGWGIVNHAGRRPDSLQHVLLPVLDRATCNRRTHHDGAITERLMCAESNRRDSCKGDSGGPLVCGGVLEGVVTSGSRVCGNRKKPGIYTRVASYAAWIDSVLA

| Compound | IC50 [nM] |
| --- | --- |
| Cc1cc2c(C(N)=O)nn(CC(=O)N3[C@@H]4C[C@@H]4C[C@H]3C(=O)N[C@H](C)[C@H]3CC3(Cl)Cl)c2cn1 [Example 38, 1-(2-{(1R,3S,5R)-3-[(R)-1-((R)-2,2-Dichloro-cyclopropyl)-ethylcarbamoyl]-2-aza-bicyclo[3.1.0]hex-2-yl}-2-oxo-ethyl)-5-methyl-1H-pyrazolo[3,4-c] pyridine-3-carboxylic acid amide] | 40 |
| CC(=O)c1nn(CC(=O)N2[C@@H]3C[C@@H]3C[C@H]2C(=O)NC[C@@H]2C(C)(C)C2(Cl)Cl)c2ccc(OCc3ncccn3)cc12 [Example 103, (1R,3S,5R)-2-{2-[3-Acetyl-5-(pyrimidin-2-ylmethoxy)-indazol-1-yl]-acetyl}-2-aza-bicyclo[3.1.0] hexane-3-carboxylic acid ((S)-2,2-dichloro-3,3-dimethyl-cyclopropylmethyl)-amide] | 70 |
| CC(=O)c1nn(CC(=O)N2[C@@H]3C[C@@H]3C[C@H]2C(=O)NC[C@H]2CC2(Cl)Cl)c2ccc(OC(C)c3ncccn3)cc12 (stereo partly drawn) [Example 100, (1R,3S,5R)-2-{2-[3-Acetyl-5-(1-pyrimidin-2-yl-ethoxy)-indazol-1-yl]-acetyl}-2-aza-bicyclo[3.1.0]hexane-3-carboxylic acid ((R)-2,2-dichloro-cyclopropylmethyl)-amide] | 158 |
| CC(=O)c1nn(CC(=O)N2[C@@H]3C[C@@H]3C[C@H]2C(=O)N[C@H](C)[C@H]2CC2(Cl)Cl)c2ccc(OCc3ccn(C)n3)cc12 [Example 66, (1R,3S,5R)-2-{2-[3-Acetyl-5-(1-methyl-1H-pyrazol-3-ylmethoxy)-indazol-1-yl]-acetyl}-2-aza-bicyclo[3.1.0]hexane-3-carboxylic acid [(R)-1-((R)-2,2-dichloro-cyclopropyl)-ethyl]-amide] | 4 |
| C[C@@]1(F)C[C@@H](C(=O)NC[C@H]2CC2(Cl)Cl)N(C(=O)Cn2nc(C(N)=O)c3ccccc32)C1 [Example 60, 1-(2-{(2S,4R)-2-[((R)-2,2-Dichloro-cyclopropylmethyl)-carbamoyl]-4-fluoro-4-methyl-pyrrolidin-1-yl}-2-oxo-ethyl)-1H-indazole-3-carboxylic acid amide] | 124 |
| C[C@@H](NC(=O)[C@@H]1C[C@H]2C[C@H]2N1C(=O)Nc1cn(C(N)=O)c2ccccc12)C1CCCCC1 [Example 28, (1R,3S,5R)-2-Aza-bicyclo[3.1.0]hexane-2,3-dicarboxylic acid 2-[(1-carbamoyl-1H-indol-3-yl)-amide] 3-[((R)-1-cyclohexyl-ethyl)-amide]] | 78 |
| CC1CCCC(CNC(=O)[C@@H]2C[C@H]3C[C@H]3N2C(=O)Nc2cn(C(N)=O)c3ccccc23)C1 (stereo partly drawn) [Example 29, (1R,3S,5R)-2-Aza-bicyclo [3.1.0]hexane-2,3-dicarboxylic acid 2-[(1-carbamoyl-1H-indol-3-yl)-amide] 3-[(3-methyl-cyclohexylmethyl)-amide]] | 46 |
| CC1(C)[C@H](CNC(=O)[C@@H]2C[C@H]3C[C@H]3N2C(=O)Cn2nc(C(N)=O)c3ccccc32)C1(Cl)Cl [Example 107, 1-(2-{(1R,3S,5R)-3-[((R)-2,2-Dichloro-3,3-dimethyl-cyclopropylmethyl)-carbamoyl]-2-aza-bicyclo[3.1.0]hex-2-yl}-2-oxo-ethyl)-1H-indazole-3-carboxylic acid amide] | 52 |
| C[C@@H](NC(=O)[C@@H]1C[C@H]2C[C@H]2N1C(=O)Cn1nc(C(N)=O)c2ccccc21)[C@H]1CC1(Cl)Cl [Example 36, 1-(2-{(1R,3S,5R)-3-[(R)-1-((R)-2,2-Dichloro-cyclopropyl)-ethylcarbamoyl]-2-aza-bicyclo[3.1.0]hex-2-yl}-2-oxo-ethyl)-1H-indazole-3-carboxylic acid amide] | 25 |
| CC1CCCC1CNC(=O)[C@@H]1C[C@H]2C[C@H]2N1C(=O)Cn1nc(C(N)=O)c2ccncc21 (single isomer, unassigned; dia 1) [Example 85] | 1410 |
| CC(=O)c1nn(CC(=O)N2[C@@H]3C[C@@H]3C[C@H]2C(=O)N[C@H](C)[C@H]2CC2(Cl)Cl)c2ccc(OCc3ncn(C)n3)cc12 [Example 61, (1R,3S,5R)-2-{2-[3-Acetyl-5-(1-methyl-1H-[1,2,4]triazol-3-ylmethoxy)-indazol-1-yl]-acetyl}-2-aza-bicyclo[3.1.0]hexane-3-carboxylic acid [(R)-1-((R)-2,2-dichloro-cyclopropyl)-ethyl]-amide] | 3 |
| CC(=O)c1nn(CC(=O)N2[C@@H]3C[C@@H]3C[C@H]2C(=O)NC[C@H]2CC2(Cl)Cl)c2ccc(CCc3ncccn3)cc12 [Example 43, (1R,3S,5R)-2-{2-[3-Acetyl-5-(2-pyrimidin-2-yl-ethyl)-indazol-1-yl]-acetyl}-2-aza-bicyclo[3.1.0] hexane-3-carboxylic acid ((R)-2,2-dichloro-cyclopropylmethyl)-amide] | 71 |
| CC(=O)c1nn(CC(=O)N2[C@@H]3C[C@@H]3C[C@H]2C(=O)NCC2CCCC(C(F)(F)F)C2)c2cnccc12 (stereo partly drawn) [Example 14, (1R,3S,5R)-2-[2-(3-Acetyl-pyrazolo[3,4-c]pyridin-1-yl)-acetyl]-2-aza-bicyclo[3.1.0] hexane-3-carboxylic acid (3-trifluoromethyl-cyclohexylmethyl)-amide] | 334 |
| NC(=O)c1nn(CC(=O)N2[C@H](C(=O)NC[C@H]3CC3(Cl)Cl)C[C@@]3(CO)C[C@@H]23)c2ccccc12 [Example 52, 1-(2-{(1R,3S,5S)-3-[((R)-2,2-Dichloro-cyclopropylmethyl)-carbamoyl]-5-hydroxymethyl-2-aza-bicyclo[3.1.0]hex-2-yl}-2-oxo-ethyl)-1H-indazole-3-carboxylic acid amide] | 56 |
| CC1(C)[C@H](CNC(=O)[C@@H]2C[C@H]3C[C@H]3N2C(=O)Nc2cn(C(N)=O)c3ccccc23)C1(Cl)Cl [Example 27, (1R,3S,5R)-2-Aza-bicyclo[3.1.0]hexane-2,3-dicarboxylic acid 2-[(1-carbamoyl-1H-indol-3-yl)-amide] 3-[((R)-2,2-dichloro-3,3-dimethyl-cyclopropylmethyl)-amide]] | 19 |
| CC(=O)c1nn(CC(=O)N2[C@@H]3C[C@@H]3C[C@H]2C(=O)NC[C@H]2CC2(Cl)Cl)c2ccc(OCc3nccc(C)n3)cc12 [Example 56, (1R,3S,5R)-2-{2-[3-Acetyl-5-(4-methyl-pyrimidin-2-ylmethoxy)-indazol-1-yl]-acetyl}-2-aza-bicyclo[3.1.0]hexane-3-carboxylic acid ((R)-2,2-dichloro-cyclopropylmethyl)-amide] | 8 |
| CC(=O)c1nn(CC(=O)N2[C@@H]3C[C@@H]3C[C@H]2C(=O)NCC2CCCCC2(C)C)c2cnccc12 (single isomer, unassigned; dia 2) [Example 22] | 1190 |

same assay, conditions: IC50, Factor D inhibition data using Method 1; recombinant human factor D 10 nM, substrate Z-Lys-thiobenzyl, fluorescence

| Compound | IC50 [nM] |
| --- | --- |
| NC(=O)c1nn(CC(=O)N2[C@@H]3C[C@@H]3C[C@H]2C(=O)NC(CO)C2CC2(Cl)Cl)c2ccccc12 (single isomer, unassigned; dia 4) [Example 51] | 246 |
| CC1C(CNC(=O)[C@@H]2C[C@H]3C[C@H]3N2C(=O)Cn2nc(C(N)=O)c3ccccc32)C1(Cl)Cl (single isomer, unassigned; dia 2) [Example 74, 1-(2-{(1R,3S,5R)-3-[((1R,3R) or (1S,3S)-2,2-Dichloro-3-methyl-cyclopropylmethyl)-carbamoyl]-2-aza-bicyclo[3.1.0]hex-2-yl}-2-oxo-ethyl)-1H-indazole-3-carboxylic acid amide-Dia 2] | 12 |
| CC(=O)c1nn(CC(=O)N2[C@@H]3C[C@@H]3C[C@H]2C(=O)NC(C)C2CC2(Cl)Cl)c2ccc(OCc3ncccn3)cc12 (single isomer, unassigned; dia 3) [Example 34] | 513 |
| CC(=O)c1nn(CC(=O)N2[C@@H]3C[C@@H]3C[C@H]2C(=O)NC(C)C2CC2(Cl)Cl)c2ccc(OCc3ncccn3)cc12 (single isomer, unassigned; dia 2) [Example 33] | 300 |
| CC1C(CNC(=O)[C@@H]2C[C@H]3C[C@H]3N2C(=O)Cn2nc(C(N)=O)c3ccccc32)C1(Cl)Cl (single isomer, unassigned; dia 2) [Example 78, 1-(2-{(1R,3S,5R)-3-[((1R,3S) or (1S,3R)-2,2-Dichloro-3-methyl-cyclopropylmethyl)-carbamoyl]-2-aza-bicyclo[3.1.0]hex-2-yl}-2-oxo-ethyl)-1H-indazole-3-carboxylic acid amide-Dia 2] | 62 |
| NC(=O)c1nn(CC(=O)N2[C@@H]3C[C@@H]3C[C@H]2C(=O)NC(CO)C2CC2(Cl)Cl)c2ccccc12 (single isomer, unassigned; dia 1) [Example 23] | 1610 |
| CC(=O)c1nn(CC(=O)N2[C@@H]3C[C@@H]3C[C@H]2C(=O)NC(C)C2CC2(Cl)Cl)c2ccc(OCc3ncccn3)cc12 (single isomer, unassigned; dia 4) [Example 35] | 324 |
| CC1C(CNC(=O)[C@@H]2C[C@H]3C[C@H]3N2C(=O)Cn2nc(C(N)=O)c3ccncc32)C1(Cl)Cl (single isomer, unassigned; dia 2) [Example 80, 1-(2-{(1R,3S,5R)-3-[((1R,3S) or (1S,3R)-2,2-Dichloro-3-methyl-cyclopropylmethyl)-carbamoyl]-2-aza-bicyclo[3.1.0]hex-2-yl}-2-oxo-ethyl)-1H-pyrazolo[3,4-c]pyridine-3-carboxylic acid amide-Dia 2] | 98 |
| CC1CCC(CNC(=O)[C@@H]2C[C@H]3C[C@H]3N2C(=O)Cn2nc(C(N)=O)c3ccccc32)C1 (single isomer, unassigned; dia 1) [Example 89] | 74 |
| CC(=O)c1nn(CC(=O)N2[C@@H]3C[C@@H]3C[C@H]2C(=O)NCC2C(C)C2(Cl)Cl)c2ccc(OCc3ncccn3)cc12 (single isomer, unassigned; dia 1) [Example 75, (1R,3S,5R)-2-{2-[3-Acetyl-5-(pyrimidin-2-ylmethoxy)-indazol-1-yl]-acetyl}-2-aza-bicyclo[3.1.0] hexane-3-carboxylic acid ((1R,3R) or (1S,3S)-2,2-dichloro-3-methyl-cyclopropylmethyl)-amide-Dia 1] | 7 |
